Measurements as given in patent publication US20260293899A1 (priority 2023, published 2026).

Columns and labels:
Pythium ultimum = test: Pythium ultimum/Liquid Culture (Seedling Damping Off); type: cell-based; conditions: Globisporangium ultimum, read-out: control of Pythium ultimum (inhibition of growth, photometric)
Phytophthora infestans = type: in vivo; conditions: 200 ppm; tomato leaf disks; preventative, inoculated 1 day after application; assessed 5-7 days after application
Plasmopara viticola = type: in vivo; conditions: 200 ppm; grape vine leaf disks; preventative, inoculated 1 day after application; assessed 6-8 days after application

SMILES: COC(=O)Nc1ccc(-c2cnc3c(C)cc(C(=O)N(Cc4cnn(C)c4)c4ccc(F)c(OC)c4)cn23)cn1 [Compound 1, methyl N-[5-[6-[(4-fluoro-3-methoxy-phenyl)-[(1-methylpyrazol-4-yl)methyl]carbamoyl]-8-methyl-imidazo[1,2-a]pyridin-3-yl]-2-pyridyl]carbamate]
- inhibition at 20 ppm (Pythium ultimum): ≥ 80%
- control of Phytophthora infestans (percent disease control compared to untreated) (Phytophthora infestans): at least 80%
- control of Plasmopara viticola (percent disease control compared to untreated) (Plasmopara viticola): at least 80%

SMILES: COC(=O)Nc1ccc(-c2cnc3ccc(C(=O)N(Cc4cnn(C)c4)c4ccc(F)c(OC)c4)cn23)cn1 [Compound 2, methyl N-[5-[6-[(4-fluoro-3-methoxy-phenyl)-[(1-methylpyrazol-4-yl)methyl]carbamoyl]imidazo[1,2-a]pyridin-3-yl]-2-pyridyl]carbamate]
- inhibition at 20 ppm (Pythium ultimum): ≥ 80%
- control of Phytophthora infestans (percent disease control compared to untreated) (Phytophthora infestans): at least 80%
- control of Plasmopara viticola (percent disease control compared to untreated) (Plasmopara viticola): at least 80%

SMILES: COC(=O)Nc1ccc(-c2cnc3ccc(C(=O)N(Cc4ccco4)c4ccc(Cl)cc4)cn23)cn1 [Compound 6, methyl N-[5-[6-[(4-chlorophenyl)-(2-furylmethyl)carbamoyl]imidazo[1,2-a]pyridin-3-yl]-2-pyridyl]carbamate]
- inhibition at 20 ppm (Pythium ultimum): ≥ 80%
- control of Phytophthora infestans (percent disease control compared to untreated) (Phytophthora infestans): at least 80%

SMILES: COC(=O)Nc1ccc(-c2cnc3ccc(C(=O)N(Cc4ccccc4)c4ccc(F)cc4)cn23)cn1 [Compound 7, methyl N-[5-[6-[benzyl-(4-fluorophenyl)carbamoyl]imidazo[1,2-a]pyridin-3-yl]-2-pyridyl]carbamate]
- inhibition at 20 ppm (Pythium ultimum): ≥ 80%

SMILES: COC(=O)Nc1ccc(-c2cnc3ccc(C(=O)N(Cc4cnn(C)c4)c4ccc(F)cc4)cn23)cn1 [Compound 8, methyl N-[5-[6-[(4-fluorophenyl)-[(1-methylpyrazol-4-yl)methyl]carbamoyl]imidazo[1,2-a]pyridin-3-yl]-2-pyridyl]carbamate]
- inhibition at 20 ppm (Pythium ultimum): ≥ 80%
- control of Phytophthora infestans (percent disease control compared to untreated) (Phytophthora infestans): at least 80%
- control of Plasmopara viticola (percent disease control compared to untreated) (Plasmopara viticola): at least 80%
